The values that follow come from ChEMBL document CHEMBL4043168, “The design and SAR of a novel series of 2-aminopyridine based LRRK2 inhibitors” (Bioorg Med Chem Lett, 2017).

Data set [1] has as its target T1, Leucine-rich repeat serine/threonine-protein kinase 2 (Homo sapiens, UniProt Q5S007). The experiment in a line: Inhibition of recombinant human wild type GST-tagged LRRK2 (970 to 2527 residues) at 200 uM preincubated for 30 mins followed by fluorescein-LRRKtide substrate addition after 2 hrs by TR-FRET assay relative to control.
For data set [2], the system named is Leucine-rich repeat serine/threonine-protein kinase 2 (Homo sapiens), Q5S007 [G2019S]. Particulars: at 200 µM.
Description: Inhibition of recombinant human LRRK2 (970 to 2527 residues) G2019S mutant expressed in baculovirus at 200 uM preincubated for 30 mins followed by fluorescein-LRRKtide substrate addition after 2 hrs by TR-FRET assay
Data set [3] concerns the target Leucine-rich repeat serine/threonine-protein kinase 2 (Homo sapiens, UniProt Q5S007, G2019S).
Description: Inhibition of recombinant human LRRK2 (970 to 2527 residues) G2019S mutant expressed in baculovirus preincubated for 30 mins followed by fluorescein-LRRKtide substrate addition after 2 hrs by TR-FRET assay
Data set [4] has as its target T1, Leucine-rich repeat serine/threonine-protein kinase 2. The experiment in a line: Inhibition of recombinant human wild type GST-tagged LRRK2 (970 to 2527 residues) at 30 uM preincubated for 30 mins followed by fluorescein-LRRKtide substrate addition after 2 hrs by TR-FRET assay relative to control. (In general: Time-resolved FRET reads energy transfer from a long-lived donor to a nearby acceptor.)

The target is the same in data set [5].
Description: Inhibition of recombinant human wild type GST-tagged LRRK2 (970 to 2527 residues) preincubated for 30 mins followed by fluorescein-LRRKtide substrate addition after 2 hrs by TR-FRET assay
Data set [6] relates to Leucine-rich repeat serine/threonine-protein kinase 2 (Homo sapiens), Q5S007 [G2019S]. As to conditions: at 40 µM.
Description: Inhibition of recombinant human LRRK2 (970 to 2527 residues) G2019S mutant expressed in baculovirus at 40 uM preincubated for 30 mins followed by fluorescein-LRRKtide substrate addition after 2 hrs by TR-FRET assay
Data set [7] deals with T1, Leucine-rich repeat serine/threonine-protein kinase 2. Kind of data set: Inhibition of recombinant human wild type GST-tagged LRRK2 (970 to 2527 residues) at 66.7 uM preincubated for 30 mins followed by fluorescein-LRRKtide substrate addition after 2 hrs by TR-FRET assay relative to control.
Data set [8] is described as follows: Intrinsic clearance in human liver microsomes. Format: ADME, microsome. As to conditions: read-out: CLH (converted). A general note: Liver microsomes are vesicles of endoplasmic reticulum, rich in cytochrome P450 enzymes.
A short description of data set [9]: Intrinsic clearance in rat liver microsomes. Format: ADME, microsome. Particulars: read-out: CLH (converted).
Data set [10] can be described thus: Apparent permeability in MDCK cells. As to conditions: dog. The class given is ADME, cell-based, Canis lupus familiaris.
Data set [11] in a line: Efflux ratio of apparent permeability from basolateral to apical over apical to basolateral side in MDCK cells. The class given is ADME, cell-based, Canis lupus familiaris. Particulars: dog.
Data set [12] can be described thus: Aqueous solubility of the compound in pH 7.4. The class given is physicochemical. Particulars: aqueous medium.
Data set [13] deals with T1, Leucine-rich repeat serine/threonine-protein kinase 2. Kind of data set: Inhibition of recombinant human wild type GST-tagged LRRK2 (970 to 2527 residues) at 22 uM preincubated for 30 mins followed by fluorescein-LRRKtide substrate addition after 2 hrs by TR-FRET assay relative to control.

Molecules are shown by their SMILES. In brackets after ≈: the same amount, converted by molar mass.

Chain of Leucine-rich repeat serine/threonine-protein kinase 2 (Homo sapiens, UniProt Q5S007, G2019S) (Q5S007 whole entry G2019S, the tested form may be a part): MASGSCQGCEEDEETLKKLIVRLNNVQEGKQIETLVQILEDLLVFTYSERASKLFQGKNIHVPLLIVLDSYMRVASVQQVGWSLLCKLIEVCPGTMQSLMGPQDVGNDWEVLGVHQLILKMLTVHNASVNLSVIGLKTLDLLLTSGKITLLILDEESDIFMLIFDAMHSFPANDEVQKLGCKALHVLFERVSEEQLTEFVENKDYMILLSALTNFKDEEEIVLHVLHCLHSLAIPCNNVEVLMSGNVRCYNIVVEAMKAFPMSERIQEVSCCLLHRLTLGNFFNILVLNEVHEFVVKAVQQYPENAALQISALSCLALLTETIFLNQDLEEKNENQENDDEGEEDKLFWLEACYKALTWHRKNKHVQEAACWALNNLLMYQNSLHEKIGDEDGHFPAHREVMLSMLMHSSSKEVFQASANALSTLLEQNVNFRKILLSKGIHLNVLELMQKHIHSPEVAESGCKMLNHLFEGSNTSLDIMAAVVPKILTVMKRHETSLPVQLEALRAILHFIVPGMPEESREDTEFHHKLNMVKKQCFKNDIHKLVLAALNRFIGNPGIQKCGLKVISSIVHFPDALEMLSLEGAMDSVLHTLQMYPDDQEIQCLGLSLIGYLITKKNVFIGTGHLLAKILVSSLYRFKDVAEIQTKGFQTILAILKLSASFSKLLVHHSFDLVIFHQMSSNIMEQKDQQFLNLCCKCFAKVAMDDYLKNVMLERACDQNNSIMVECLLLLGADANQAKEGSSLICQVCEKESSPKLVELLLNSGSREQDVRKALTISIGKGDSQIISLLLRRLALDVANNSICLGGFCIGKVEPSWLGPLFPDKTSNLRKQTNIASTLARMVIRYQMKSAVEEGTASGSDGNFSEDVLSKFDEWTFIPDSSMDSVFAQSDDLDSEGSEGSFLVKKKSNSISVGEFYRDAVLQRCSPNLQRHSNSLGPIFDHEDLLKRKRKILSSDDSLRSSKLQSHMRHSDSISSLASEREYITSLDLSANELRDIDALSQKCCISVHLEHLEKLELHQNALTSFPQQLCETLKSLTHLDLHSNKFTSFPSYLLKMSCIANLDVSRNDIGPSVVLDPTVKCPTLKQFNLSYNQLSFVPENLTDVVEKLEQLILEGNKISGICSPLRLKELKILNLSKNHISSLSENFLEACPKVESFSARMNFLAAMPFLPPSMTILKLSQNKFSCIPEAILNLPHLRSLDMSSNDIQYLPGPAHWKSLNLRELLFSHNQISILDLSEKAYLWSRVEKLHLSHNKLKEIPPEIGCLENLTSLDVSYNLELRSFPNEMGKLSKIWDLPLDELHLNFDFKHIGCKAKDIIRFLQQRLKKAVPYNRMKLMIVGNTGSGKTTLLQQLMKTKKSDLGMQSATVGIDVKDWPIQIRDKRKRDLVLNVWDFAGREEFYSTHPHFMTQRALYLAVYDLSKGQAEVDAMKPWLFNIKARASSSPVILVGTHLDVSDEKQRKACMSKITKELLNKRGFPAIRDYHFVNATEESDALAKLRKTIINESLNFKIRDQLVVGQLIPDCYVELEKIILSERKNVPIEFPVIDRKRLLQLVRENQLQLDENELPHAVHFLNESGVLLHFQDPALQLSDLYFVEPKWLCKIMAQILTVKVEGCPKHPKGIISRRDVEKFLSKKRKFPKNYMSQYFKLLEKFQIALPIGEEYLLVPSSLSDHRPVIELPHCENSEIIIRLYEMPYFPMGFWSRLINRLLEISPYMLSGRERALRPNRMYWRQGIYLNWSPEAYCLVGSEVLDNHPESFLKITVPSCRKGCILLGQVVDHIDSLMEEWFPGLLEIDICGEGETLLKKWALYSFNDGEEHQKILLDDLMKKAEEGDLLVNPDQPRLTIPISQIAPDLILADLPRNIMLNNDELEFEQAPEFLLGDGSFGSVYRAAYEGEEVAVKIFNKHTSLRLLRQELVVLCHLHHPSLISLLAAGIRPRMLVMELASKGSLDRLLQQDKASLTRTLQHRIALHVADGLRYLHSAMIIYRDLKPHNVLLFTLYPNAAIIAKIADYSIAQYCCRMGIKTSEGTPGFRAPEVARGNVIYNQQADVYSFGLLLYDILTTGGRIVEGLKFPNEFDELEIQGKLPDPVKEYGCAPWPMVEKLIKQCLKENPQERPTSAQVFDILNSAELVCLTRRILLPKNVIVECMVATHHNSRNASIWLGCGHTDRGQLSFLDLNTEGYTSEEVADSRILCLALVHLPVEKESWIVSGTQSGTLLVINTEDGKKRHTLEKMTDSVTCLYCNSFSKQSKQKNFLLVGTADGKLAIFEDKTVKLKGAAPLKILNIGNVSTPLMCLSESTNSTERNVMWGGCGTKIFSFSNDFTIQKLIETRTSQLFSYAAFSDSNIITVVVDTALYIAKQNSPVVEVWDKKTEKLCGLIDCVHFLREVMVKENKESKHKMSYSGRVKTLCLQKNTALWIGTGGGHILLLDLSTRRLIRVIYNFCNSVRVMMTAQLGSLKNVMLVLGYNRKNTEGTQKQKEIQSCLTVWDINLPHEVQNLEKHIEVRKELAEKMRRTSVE
T1 sequence (Q5S007 whole entry, the tested form may be a part): as the sequence (Q5S007 whole entry G2019S, the tested form may be a part) above, with S2019G counted along it
Chain of Leucine-rich repeat serine/threonine-protein kinase 2 (Homo sapiens), Q5S007 [G2019S] (Q5S007 whole entry G2019S, the tested form may be a part): as the sequence (Q5S007 whole entry G2019S, the tested form may be a part) above

On to `Cc1ccc(-c2cnc(N)c(-c3cnn(C)c3C)c2)cc1`, for which the inhibition (as a rule, the drop in the measured response relative to a control, in per cent) in [1] came out at 49%; in [2] it was 62%.

In the case of `Cc1ccc(-c2cnc(N)c(-n3cc(C)nn3)c2)cc1`, the IC50 (as a rule, the concentration that inhibits the measured activity by half) in data set [3] came to 9.1 µM. Further, the inhibition in [4] came out at 70%.

As to `CCNc1nc(Nc2cc(F)c(C(=O)N3CCOCC3)cc2OC)ncc1C(F)(F)F`, the values for the IC50 in [3] and in data set [5] were 0.046 µM and 0.097 µM, respectively.

Compound `Cn1cc(-c2cc(-c3ccc4[nH]ccc4c3)cnc2N)cn1` displayed an IC50 in data set [3] of 13 µM. For the same compound, in [1], the inhibition was 75%.

For `Cc1ccc(-c2cnc(N)c(-c3cnc(C)o3)c2)cc1`, the IC50 came to 11 µM in [3] and 24 µM in [5].

Take `Cn1cc(-c2cc(-c3ccc4c(ccn4C)c3)cnc2N)cn1`: in [3], the IC50 is 5.8 µM. Also, in data set [4], the inhibition was 64%.

In the case of `Cn1ccc(-c2cc(-c3ccc4[nH]ccc4c3)cnc2N)n1`, the inhibition in data set [1] turned out to be 48%; in data set [6] it was 65%.

Regarding `Cc1ccc(-c2cnc(N)c(-c3cn[nH]c3)c2)cc1`, the IC50 in data set [3] was 13 µM. The inhibition in data set [7] worked out at 72%.

`Cc1ccc(-c2cnc(N)c(-c3cnn(C)c3)c2)cc1`: the IC50 was 6.7 µM in data set [3] and 16 µM in data set [5]. Further, the figures for the CLint scaled in data set [8] and in [9] were 100 mL/min/kg and 283 mL/min/kg, respectively. Moreover, in data set [10], the Papp – broadly, the rate of passage across a membrane or cell layer, normalised by area and donor concentration – came to 16.9 ×10⁻⁶ cm/s. In addition, the efflux ratio (usually a quotient of directional permeabilities that is used to spot active efflux) in [11] is 0.55. For the same compound, the solubility (usually how much of the substance goes into solution per volume) in data set [12] stood at 11 µg/mL (≈ 41.6 µM).

In the case of `CCn1cc(-c2cc(-c3ccc(C)cc3)cnc2N)cn1`, the IC50 in [3] and in data set [5] was 12 µM throughout.

In the case of `Cc1ccc(-c2cnc(N)c(-c3nnc(C4CC4)o3)c2)cc1`, the results for the IC50 in [3] and in data set [5] were 2.2 µM and 2.3 µM, respectively.

`Cc1nnc(-c2cc(-c3ccc4[nH]ccc4c3)cnc2N)o1`: half-maximal inhibition in data set [3] (IC50) required 3.6 µM.

For the compound `Cc1ccc(-c2cnc(N)c(-c3cn(C)cn3)c2)cc1`, the IC50 in data set [3] turned out to be 57 µM. The inhibition in [1] was 60%.

In the case of `Nc1ncc(-c2ccc3[nH]ccc3c2)cc1-c1nnc(C2CC2)o1`, the results for the IC50 in data set [3] and in [5] were 1.6 µM and 1.3 µM, respectively.

Compound `CCc1nnc(-c2cc(-c3ccc4[nH]ccc4c3)cnc2N)o1` displayed an IC50 in data set [3] of 2.9 µM. Further, the inhibition in data set [13] is 77%.
